Laboratory results taken from the NIST ThermoML archive (doi:10.1021/je100679s).

Legend:
[1] = 101 kPa, Liquid; for electrical conductivity: DDS-307 conductivity meter
[2] = xn = mol fraction of the nth substance listed; conditions: 101 kPa, Liquid, x2 = 0

CCCCCCn1cc[n+](C)c1C.O=S(=O)([N-]S(=O)(=O)C(F)(F)F)C(F)(F)F
[1]
Conditions	electrical conductivity [S/m]	mass density [kg/m3]
293.15 K	–	1358.19
298.15 K	0.108	1353.11
303.15 K	0.158	1348.71
308.15 K	0.213	1344.29
313.15 K	0.271	1339.88
318.15 K	0.319	1335.47
323.15 K	0.369	1331.06
328.15 K	0.426	1326.65
333.15 K	0.48	1322.24

COC(=O)OC [dimethyl carbonate]
[1]
Conditions	mass density [kg/m3]
293.15 K	1069.92
298.15 K	1063.34
303.15 K	1056.72
308.15 K	1050.07
313.15 K	1043.39
318.15 K	1036.69
323.15 K	1029.94
328.15 K	1023.25
333.15 K	1016.32

COC(=O)OC [dimethyl carbonate] + CCCCCCn1cc[n+](C)c1C.O=S(=O)([N-]S(=O)(=O)C(F)(F)F)C(F)(F)F
[2]
Conditions	mass density [kg/m3]
293.15 K	1069.92
298.15 K	1063.34
303.15 K	1056.72
308.15 K	1050.07
313.15 K	1043.39
318.15 K	1036.69
323.15 K	1029.94
328.15 K	1023.25
333.15 K	1016.32
